# Data from patent publication US20240376087A1, “PYRAZOLE AMIDE BASED COMPOUNDS AND USES AGAINST BREAST CANCER THEREOF” (COUNCIL OF SCIENTIFIC AND INDUSTRIAL RESEARCH AN INDIAN …, priority 2021, published 2024).
# How the values were obtained:
# Type in all cases: cell-based, human
# MDA MB 231 cells [1] = test: Morphological analysis by phase contrast and electron microscopy; details: MDA MB 231, phase contrast and SEM
# From the text: Morphological analysis of the cells treated with NIIST-AC-1 at different concentrations were monitored using phase contrast microscope Nikon EclipseTS100 (Nikon Instruments Inc., Melville, NY, USA, Magnification 20×) and SEM (Zeiss EVO 18 Special Edition) at ×2k and ×5k magnification.
# caspase-3 = test: Assay of caspase 3 (fluorometric, cell lysates); details: MDA MB 231 cell lysates, DEVD-AFC
# Protocol: The activities of the initiator caspase-9 and downstream executioner caspase-3 were measured using Fluorometric Assay Kit. The caspase activity in the cell lysates of control and treated cells were measured by using the fluorescent substrate DEVD-AFC (for caspase-3 activity) and LEHD-AFC (for caspase-9 activity). Samples were read at 400-nm excitation filter and 505-nm emission filter in a fluorescent microplate reader (BioTek Synergy HT) using Gen5™ ver 1.05.11 software, and the results were expressed as relative units in terms of fluorescence.
# MDA MB 231 cells [2] = test: Wound healing (scratch wound) assay; details: 24 hr
# Protocol: Wound healing assay was performed to understand the antimigration effects of NIIST-AC-1. The confluent monolayers of cells after making the scratch were treated with the test compounds at different concentrations for 24 hr. After the time interval, the wound closure by the migration of the cells was observed under the phase-contrast microscope (Nikon Eclipse TS100), and images were captured using NIS-Elements 3.21.00 imaging software at different time points (0, 24 h) at 4× magnification. The wound area was quantified using ImageJ 1.52p software.
# MDA MB 231 cells [3] = test: Nuclear fragmentation by DAPI staining; details: MDA MB 231, DAPI staining, 24 hr
# Protocol: Fragmentation of the nucleus on treatment with NIIST-AC-1 was analyzed using the cell permeable dye which binds to AT rich sequences in the minor groove of DNA. After treatment in 96 well culture plates for 24 hr, the cells were stained with DAPI for 20 min. The morphology of the stained nucleus was observed using a spinning disc fluorescent microscope at an excitation/emission of 360/460 nm (BD Pathway™ 855; Biosciences), and images were taken using the software BD Atto Vision™ version 1.6.
# MDA MB 231 cells [4] = test: Phosphatidyl serine translocation by annexin V staining; details: MDA MB 231, annexin V staining, 24 hrs
# Protocol: The translocation of phosphatidyl serine to the outer leaflet of plasma membrane during apoptosis was studied by Annexin V-Cy3™ Apoptosis Detection Kit. After treatment with different concentrations of NIIST-AC-1 for 24 hrs, the cells were washed and stained with annexin V for 10 min. After the staining solution was removed, the binding buffer was added and the cells observed under a spinning disc fluorescent microscope (BD Biosciences), and images were taken using the software BD Atto Vision version 1.6.
# MDA MB 231 cells [5] = test: Anoikis assay; details: MDA MB 231, anoikis chamber, 48 hrs
# Protocol: The effect of NIIST-AC-1 on anoikis resistance was analyzed using Anoikis Assay Kit by following the manufacturer's protocol. The cells were seeded in ultralow attachment plate 9anoikis chamber) after pretreating with different concentrations of NIIST-AC-1. After 48 hrs, the cells were observed under the phase-contrast microscope (Nikon Eclipse TS100) for observing the attachment and images were captured using NIS-Elements 3.21.00 imaging software. The viability of the cells was also measured by MTT assay.
# MDA MB 231 cells [6] = test: Measurement of mitochondrial membrane potential (JC-1); details: MDA MB 231, JC-1, 24 h
# Protocol: The cells were then treated with various concentrations of NIIST-AC-1 for 24 h. After removing the spent medium, 100 μl of freshly prepared JC-1 stain was added and samples were then incubated for 20 min in a CO2 incubator at 37° C. Immediately after the incubation, cells were observed under a spinning disc fluorescent microscope (BD Pathway 855), and images were taken using the software BD Atto Vision version 1.6.
# MDA MB 231 cells [7] = test: RNA sequencing whole transcriptome analysis and gene set enrichment
# Protocol: Toral RNA was isolated from the cells using RNeasy mini kit. 15 μg of cellular RNA was quality assessed (Bioanalyzer from Agilent Technologies) and used for mRNA library preparation. The mRNAs were fragmented, and the first strand of cDNA was synthesized from the cleaved RNA using random primers followed by second strand cDNA synthesis. The purified cDNA templates were enriched by PCR amplification to generate cDNA libraries. The developed libraries were presented to RNA sequencing facility and two rapid single-read 50 illumina HiSeq sequencing runs were performed. Raw reads from separate lanes of the same sample were merged for mapping. RNA sequencing was performed at Eurofins Genomics India Pvt. Ltd., Bengaluru 560048, Karnataka, India.
# The output raw FASTQ files were analyzed using various tools of Galaxy platform to extract the differentially expressed genes as follows. The quality of the reads was analyzed using FastQC (Galaxy Version 0.72+galaxy1). The quality check reports were aggregated using MultiQC (Galaxy Version 1.9+galaxy1). Cutadapt (Galaxy Version 1.16.6) was used for adapter removal and filtering using threshold of minimum read length 20 and minimum quality (phred score) 20. Again, the quality was checked, and results were aggregated. The cleaned reads were mapped to a reference genome (Homo_sapiens.GRCh38.dna_sm.primary_assembly.fa.gz) and annotation file (Homo_sapiens.GRCh38.104.gtf.gz) using HISAT2 (Galaxy Version 2.1.0+galaxy7), a splice-aware alignment program. The output bam files are processed using StringTie (Galaxy Version 2.1.1) to assemble and quantitate RNA-Seq alignments into potential transcript. Later the Deseq2 (Galaxy Version 2.11.40.6+galaxy1) was used to determine normalized differentially expressed genes from the Stringtie output count tables. […] These differentially expressed genes were filtered using Filter (Galaxy Version 1.1.1) to extract significant ones by adding a filter of q-value<=0.05 and log 2 fold change >1.
# The functional annotation (biological process, molecular function and pathways) was considered significant at False discovery rate (FDR B&H)<0.05. GSEA Preranked tool of standalone R program GSEA 4.1.0 was used to perform Gene Set Enrichment Analysis (GSEA) on ranked (log fold change based) list of total DEGs against CP: Canonical pathways (a pre-defined collection of 2922 gene sets) of Molecular Signatures Database (MSigDB). The enriched pathways with FDR qvalue less than 0.25 were considered significant.
# MDA MB 231 cells [8] = test: Colony formation assay; details: 48 hr pretreatment, 14 days
# Protocol: The pretreated cells with different concentrations of NIIST-AC-1 for 48 hr were plated in six well plates and allowed to grow and colonize for 14 days. The colonies were stained with crystal violet for 2 hr after fixing with acetic acid and methanol. The visible colonies were photographed and the colon area was quantified using ImageJ 1.52p software.
# [9] = whole transcriptome, q-value<=0.05 and log 2 fold change >1
smiles,measurement,setting,value
"COc1cc(-c2cc(C(=O)NCc3cc(C(F)(F)F)cc(C(F)(F)F)c3)[nH]n2)cc(OC)c1OC [I-8, N-(3,5-bis(trifluoromethyl)benzyl)-3-(3,4,5-trimethoxyphenyl)-1H-pyrazole-5-carboxamide]",morphological changes of the cells,MDA MB 231 cells [1],significant morphological changes
same,caspase 3 activity,caspase-3,upregulated caspase activity
same,cell migration,MDA MB 231 cells [2],cell migration inhibition was evident
same,nuclear fragmentation,MDA MB 231 cells [3],significant nuclear fragmentation
same,phosphatidyl serine translocation,MDA MB 231 cells [4],phosphatidyl serine translocation
same,detachment induced cell death (anoikis),MDA MB 231 cells [5],induced detachment induced cell death (anoikis)
same,mitochondrial membrane potential,MDA MB 231 cells [6],loss of mitochondrial membrane potential
same,downregulated signaling pathways (gene set enrichment analysis),MDA MB 231 cells [7]; downregulated genes vs canonical gene sets,downregulated many signaling pathways that are critical in the cell death process
same,upregulated signaling pathways (gene set enrichment analysis),MDA MB 231 cells [7]; upregulated genes vs canonical gene sets,"upregulation of signaling pathways of ER stress induced apoptosis, UPR response, autophagy, HDAC acetylation"
same,number of downregulated genes,MDA MB 231 cells [7]; [9],1642 genes
same,number of upregulated genes,MDA MB 231 cells [7]; [9],1337 genes
same,colony formation,MDA MB 231 cells [8],inhibition of colony formation
